≈ marks a conversion by molar mass, not a printed value. Like-named read-outs stand apart in the source and are kept apart here.
Assays:
[1] = tested on: gram-negative and gram-positive bacteria; conditions: cited from earlier work
[2] = tested on: Propionibacterium acens 11828; test: In vitro antibacterial activity (anaerobic bacteria), MIC; type: cell-based; conditions: anaerobic, Gram +, 10^6 cells/ml, read-out: MIC
B. fragilis 25285 = test: as above; type: cell-based; conditions: Bacteroides fragilis
[3] = tested on: Yersinia enterocolitica IID 981; test: microbe, parasite or virus in culture; type: cell-based; conditions: IID981
[4] = tested on: Peptostreptococcus anaerobius KYA 27337; test: In vitro antibacterial activity (anaerobic bacteria), MIC; type: cell-based; conditions: KYA27337
P. aeruginosa IID 1210 = test: In vitro antibacterial activity (aerobic bacteria), MIC; type: cell-based; conditions: Pseudomonas aeruginosa, IID1210, aerobic; Gram -; 10^6 cells/ml
[5] = tested on: Enterobacter cloacae IID 977; test: as above; type: cell-based; conditions: IID977
C. perfringens KYA 13123 = test: microbe, parasite or virus in culture; type: cell-based; conditions: Clostridium perfringens, KYA13123
P. cepacia GIFU 518 = test: In vitro antibacterial activity (aerobic bacteria), MIC; type: cell-based; conditions: Burkholderia cepacia, GIFU518; aerobic; Gram -; 10^6 cells/ml
[6] = tested on: Escherichia coli NIHJ JC-2; test: as above; type: cell-based; conditions: NIHJJC2, aerobic, Gram -, 10^6 cells/ml
[7] = tested on: Salmonella enteritidis IID 604; test: as above; type: cell-based; conditions: Salmonella enterica
[8] = tested on: Eubacterium lentum GAI 5242; test: In vitro antibacterial activity (anaerobic bacteria), MIC; type: cell-based; conditions: Eggerthella lenta, GAI5242
P. maltophilia GIFU 2491 = test: In vitro antibacterial activity (aerobic bacteria), MIC; type: cell-based; conditions: Stenotrophomonas maltophilia, GIFU2491
[9] = tested on: Alcaligenes faecalis 0114002; test: as above; type: cell-based; conditions: Alcaligenes faecalis, 0114002, aerobic; Gram -; 10^6 cells/ml
[10] = tested on: Citrobacter freundii IID 976; test: as above; type: cell-based
C. ramosum = test: In vitro antibacterial activity (anaerobic bacteria), MIC; type: cell-based; conditions: anaerobic, Gram +, 10^6 cells/ml
B. fragilis 0558 = test: as above; type: cell-based; conditions: Bacteroides fragilis
B. distasonis 8503 = test: as above; type: cell-based; conditions: Parabacteroides distasonis, Gram -, 10^6 cells/ml, read-out: MIC
[11] = tested on: Serratia marcescens IID 618; test: In vitro antibacterial activity (aerobic bacteria), MIC; type: cell-based; conditions: IID618, Gram -, 10^6 cells/ml
Method: (§1) Minimal inhibitory concentrations (MICs) were determined in accordance with the method recommended by Japan Society of Chemotherapy.

[12] = tested on: S. aureus IID 670 (Terajima); test: as above; type: cell-based; conditions: Staphylococcus aureus, IID670, Gram +, 10^6 cells/ml
Method: as §1

[13] = tested on: Proteus vulgaris IFO 3167; test: as above; type: cell-based; conditions: IFO3167, Gram -, 10^6 cells/ml
Method: as §1

[14] = tested on: Acinetobacter anitratus IID 876; test: as above; type: cell-based; conditions: 10^6 cells/ml
Method: as §1

[15] = tested on: Staphylococcus aureus 209 P; test: as above; type: cell-based; conditions: Gram +, 10^6 cells/ml
Method: as §1

Shigella sonnei IID 969 = test: as above; type: cell-based; conditions: IID969, Gram -, 10^6 cells/ml
Method: as §1

P. mirabilis IID 994 = test: as above; type: cell-based; conditions: Proteus mirabilis, IID994, Gram -, 10^6 cells/ml
Method: as §1

K. pneumoniae 1-220S = test: as above; type: cell-based; conditions: Klebsiella pneumoniae, 1220S, Gram -, 10^6 cells/ml
Method: as §1

E. coli ATCC 10536 = test: as above; type: cell-based; conditions: Escherichia coli, ATCC10536, Gram -, 10^6 cells/ml
Method: as §1

[16] = tested on: Pseudomonas aeruginosa V-1; test: as above; type: cell-based; conditions: Gram -, 10^6 cells/ml
Method: as §1

S. epidermidis IID 866 = test: as above; type: cell-based; conditions: Staphylococcus epidermidis, IID866, Gram +, 10^6 cells/ml
Method: as §1

[17] = tested on: Morganella morganii IID 602; test: as above; type: cell-based; conditions: 10^6 cells/ml
Method: as §1

[18] = tested on: Bacteroides fragilis GM 7000; test: In vitro antibacterial activity (anaerobic bacteria), MIC; type: cell-based; conditions: GM7000
P. aeruginosa IFO 12689 = test: In vitro antibacterial activity (aerobic bacteria), MIC; type: cell-based; conditions: Pseudomonas aeruginosa, IFO12689
Pst micros UPI 5464-1 = test: microbe, parasite or virus in culture; type: cell-based; conditions: anaerobic; Gram +; 10^6 cells/ml
[19] = tested on: Fusobacterium necrophorum S-45; test: In vitro antibacterial activity (anaerobic bacteria), MIC; type: cell-based; conditions: S45
[20] = tested on: B. thetaiotaomicron (0661); test: as above; type: cell-based; conditions: anaerobic, Gram -, 10^6 cells/ml
[21] = tested on: Veillonella parvula KYA 10790; test: as above; type: cell-based; conditions: KYA10790
[22] = tested on: Bacillus subtilis PCI 219; test: In vitro antibacterial activity (aerobic bacteria), MIC; type: cell-based; conditions: PCI219
F. varium KYA 8501 = test: In vitro antibacterial activity (anaerobic bacteria), MIC; type: cell-based; conditions: Fusobacterium varium, KYA8501
[23] = tested on: Peptococcus magnus KY 017; test: as above; type: cell-based; conditions: 10^6 cells/ml
Method: as §1

[24] = tested on: Klebsiella pneumoniae KY(GN)6445; test: In vitro antibacterial activity (aerobic bacteria), MIC; type: cell-based
[25] = tested on: Clostridium difficile I-E; test: In vitro antibacterial activity (anaerobic bacteria), MIC; type: cell-based; conditions: Clostridioides difficile
[26] = Acinetobacter calcoaceticus, IID876, Gram -, read-out: MIC
[27] = Pseudomonas aeruginosa, V1, aerobic, read-out: MIC
[28] = Morganella morganii, IID602, Gram -, read-out: MIC

For `CCn1cc(C(=O)O)c(=O)c2cc(F)c(N3CCNCC3)cc21` [norfloxacin], the antibacterial activity ([1]; gram-negative bacteria including Pseudomonas aeruginosa and gram-positive bacteria) is listed as “high antibacterial activity”.

With `Cc1c(N2CCNCC2)c(F)cc2c(=O)c(C(=O)O)cn(C3CC3)c12` [Exp. 19, 1-Cyclopropyl-6-fluoro-1,4-dihydro-8-methyl-4-oxo-7-(1-piperazinyl)-3-quinolinecarboxylic acid] the MIC [2] was 6.25 µg/mL (≈ 18.1 µM), the MIC (B. fragilis 25285) was 0.78 µg/mL (≈ 2.26 µM) and the MIC [3] was 0.05 µg/mL (≈ 0.145 µM). It also gave an MIC [4] of 0.78 µg/mL (≈ 2.26 µM), an MIC (P. aeruginosa IID 1210) of 0.78 µg/mL (≈ 2.26 µM) and an MIC [5] of 0.05 µg/mL (≈ 0.145 µM). It also gave an MIC (C. perfringens KYA 13123) of 0.2 µg/mL (≈ 0.579 µM), an MIC (P. cepacia GIFU 518) of 0.78 µg/mL (≈ 2.26 µM) and an MIC ([6]; read-out: MIC) of 0.125 µg/mL (≈ 0.362 µM). It also gave an MIC [7] of 0.05 µg/mL (≈ 0.145 µM), an MIC [8] of 0.2 µg/mL (≈ 0.579 µM) and an MIC (P. maltophilia GIFU 2491) of 0.39 µg/mL (≈ 1.13 µM). It also gave an MIC [9] of 0.39 µg/mL (≈ 1.13 µM), an MIC ([10]; Citrobacter freundii, IID976) of 0.05 µg/mL (≈ 0.145 µM) and an MIC (C. ramosum; Thomasclavelia ramosa, read-out: MIC) of 6.25 µg/mL (≈ 18.1 µM). It also gave an MIC (B. fragilis 0558) of 0.39 µg/mL (≈ 1.13 µM), an MIC (B. distasonis 8503) of 1.56 µg/mL (≈ 4.52 µM) and an MIC [11] of 0.05 µg/mL (≈ 0.145 µM). For the same compound, the MIC [12] was 0.2 µg/mL (≈ 0.579 µM), the MIC [13] was 0.025 µg/mL (≈ 0.0724 µM) and the MIC [14, 26] was 0.2 µg/mL (≈ 0.579 µM). For the same compound, the MIC [15] was 0.2 µg/mL (≈ 0.579 µM), the MIC (Shigella sonnei IID 969) was 0.025 µg/mL (≈ 0.0724 µM) and the MIC (P. mirabilis IID 994) was 0.025 µg/mL (≈ 0.0724 µM). It also gave an MIC (K. pneumoniae 1-220S) of 0.05 µg/mL (≈ 0.145 µM), an MIC (E. coli ATCC 10536) of 0.05 µg/mL (≈ 0.145 µM) and an MIC [16, 27] of 0.1 µg/mL (≈ 0.29 µM). It also gave an MIC (S. epidermidis IID 866) of 0.2 µg/mL (≈ 0.579 µM), an MIC [17, 28] of 0.1 µg/mL (≈ 0.29 µM) and an MIC [18] of 0.78 µg/mL (≈ 2.26 µM). For the same compound, the MIC (P. aeruginosa IFO 12689) was 0.78 µg/mL (≈ 2.26 µM), the MIC (Pst micros UPI 5464-1) was 0.39 µg/mL (≈ 1.13 µM) and the MIC [19] was 0.39 µg/mL (≈ 1.13 µM). For the same compound, the MIC ([20]; Bacteroides thetaiotaomicron, read-out: MIC) was 6.25 µg/mL (≈ 18.1 µM), the MIC [21] was 0.39 µg/mL (≈ 1.13 µM) and the MIC [22] was 0.05 µg/mL (≈ 0.145 µM). For the same compound, the MIC (F. varium KYA 8501) was 3.13 µg/mL (≈ 9.06 µM), the MIC ([23]; Finegoldia magna, KY017, Gram +, read-out: MIC) was 0.39 µg/mL (≈ 1.13 µM) and the MIC [24] was 0.05 µg/mL (≈ 0.145 µM). For the same compound, the MIC [25] was 3.13 µg/mL (≈ 9.06 µM).

Work on `O=C(O)c1cn(C2CC2)c2cc(N3CCNCC3)c(F)cc2c1=O` [CPFX, ciprofloxacin, reference compound] yielded an MIC (B. fragilis 25285) of 3.13 µg/mL (≈ 9.45 µM), an MIC [3] of 0.05 µg/mL (≈ 0.151 µM) and an MIC [6] of at most 0.0063 µg/mL. For the same compound, the “antibacterial activity compared with norfloxacin” value [1] was “stronger antibacterial activity than norfloxacin”, the “antibacterial potency against gram-positive bacteria” value ([1]; compared with gram-negative bacteria) was “considerably inferior to that against gram-negative bacteria” and the MIC [9] was 0.2 µg/mL (≈ 0.604 µM). It also gave an MIC ([10]; aerobic, Gram -, 10^6 cells/ml) of 0.0063 µg/mL (≈ 0.019 µM), an MIC (C. ramosum) of 6.25 µg/mL (≈ 18.9 µM) and an MIC (B. fragilis 0558) of 3.13 µg/mL (≈ 9.45 µM). The MIC [11] was 0.05 µg/mL (≈ 0.151 µM), the MIC [12] was 0.2 µg/mL (≈ 0.604 µM) and the MIC [14, 26] was 0.1 µg/mL (≈ 0.302 µM). It also gave an MIC ([14]; Gram -) of 0.20 µg/mL (≈ 0.604 µM), an MIC [15] of 0.2 µg/mL (≈ 0.604 µM) and an MIC (P. mirabilis IID 994) of 0.025 µg/mL (≈ 0.0754 µM). It also gave an MIC (K. pneumoniae 1-220S) of 0.05 µg/mL (≈ 0.151 µM), an MIC [16, 27] of 0.05 µg/mL (≈ 0.151 µM) and an MIC ([16]; aerobic) of 0.10 µg/mL (≈ 0.302 µM). For the same compound, the MIC (S. epidermidis IID 866) was 0.2 µg/mL (≈ 0.604 µM), the MIC ([17]; Gram -) was 0.025 µg/mL (≈ 0.0754 µM) and the MIC [17, 28] was 0.05 µg/mL (≈ 0.151 µM). The MIC [18] was 6.25 µg/mL (≈ 18.9 µM), the MIC (P. aeruginosa IFO 12689) was 0.2 µg/mL (≈ 0.604 µM) and the MIC [20] was 25 µg/mL (≈ 75.4 µM). It also gave an MIC [21] of 0.2 µg/mL (≈ 0.604 µM), an MIC [22] of 0.05 µg/mL (≈ 0.151 µM) and an MIC ([23]; Gram +) of 0.20 µg/mL (≈ 0.604 µM).

From patent US4894458A, “Quinolonecarboxylic acid derivatives and their preparation” (Kyorin Pharmaceutical Co., Ltd., priority 1986, dated 1990)
